We go through five molecules from patent US20100035907A1, “NEW 2,4-DIANILINOPYRIMIDINES, PREPARATION THEREOF AS DRUGS, PHARMACEUTICAL COMPOSITIONS AND USE THEREOF ESSENTIALLY AS IKK INHIBITORS” (Sanofi-aventis, priority 2007, published 2010).

Molecule `Cc1cc(Nc2ccnc(Nc3ccc(C(=O)N(C)C4CCCN(Cc5csnn5)C4)cc3)n2)ccc1F` (centres unmarked) [Example 3, 4-[4-(4-Fluoro-3-methylphenylamino)pyrimidin-2-ylamino]-N-methyl-N-[1-(1,2,3-thiadiazol-4-ylmethyl)piperidin-3-yl]benzamide] gave a melting point of 125 to 130 °C. With `CN(C(=O)c1ccc(Nc2nccc(Nc3ccc(C(F)(F)F)cc3)n2)cc1)C1CCOCC1` [Example 5, N-Methyl-N-(tetrahydropyran-4-yl)-4-[4-(4-(trifluoromethyl)phenylamino)pyrimidin-2-ylamino]benzamide], the melting point lay in the range of 254 to 256 °C. Regarding `CN1CCC(N(C)C(=O)c2ccc(Nc3nccc(Nc4ccc(C(F)(F)F)cc4)n3)cc2)CC1` [Example 4, N-Methyl-N-(1-methylpiperidin-4-yl)-4-[4-(4-(trifluoromethyl)phenylamino)pyrimidin-2-ylamino]benzamide], the melting point is 238 to 244 °C.

Take `CN(C(=O)c1ccc(Nc2nccc(Nc3ccc(F)cc3)n2)cc1)C1CCN2CCCC2C1` (centres unmarked) [Example 7]: the melting point fell in the range of 230 to 235 °C.

For the molecule `Cc1cc(Nc2ccnc(Nc3ccc(C(=O)N(C)C4CCCN(CCCC(F)(F)F)C4)cc3)n2)ccc1F` (centres unmarked) [Example 2, 4-[4-(4-Fluoro-3-methylphenylamino)pyrimidin-2-ylamino]-N-methyl-N-[1-(4,4,4-trifluorobutyl)piperidin-3-yl]benzamide], the melting point is 100 to 110 °C.
